PubChem BioAssay AID2060330 (Molecular Pharmacology Branch, DTP, NCI, 2025)

System: LG0703-F948-PDC spheroids with HUVEC/MSC, viability
Assay: Anticancer human tumor LG0703-F948-PDC patient-derived lung adenocarcinoma cell line growth inhibition [IpAb]
Conditions: for IC50: curve of first compound; for viability, T/C: stronger effect = lower value
Outline: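 Spheroids of 60% malignant cells, 25% HUVEC and 15% MSC were exposed to targeted agents combined with ipatasertib or abemaciclib. Doses started at or near clinical Cmax (10 microM when unknown) and fell in half-log steps.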

[1] = second compound 0.1 µM, first compound 0.0316 µM
[2] = second compound 0.1 µM, first compound 0.1 µM
[3] = second compound 0.1 µM, first compound 0.316 µM
[4] = second compound 0.1 µM, first compound 1 µM
[5] = second compound 0.1 µM, first compound 3.16 µM
[6] = second compound 0.1 µM, first compound 10 µM
[7] = second compound 0.316 µM, first compound 0.0316 µM
[8] = second compound 0.316 µM, first compound 0.1 µM
[9] = second compound 0.316 µM, first compound 0.316 µM
[10] = second compound 0.316 µM, first compound 1 µM
[11] = second compound 0.316 µM, first compound 3.16 µM
[12] = second compound 0.316 µM, first compound 10 µM
[13] = second compound 1 µM, first compound 0.0316 µM
[14] = second compound 1 µM, first compound 0.1 µM
[15] = second compound 1 µM, first compound 0.316 µM
[16] = second compound 1 µM, first compound 1 µM
[17] = second compound 1 µM, first compound 3.16 µM
[18] = second compound 1 µM, first compound 10 µM
[19] = second compound 3.16 µM, first compound 0.0316 µM
[20] = second compound 3.16 µM, first compound 0.1 µM
[21] = second compound 3.16 µM, first compound 0.316 µM
[22] = second compound 3.16 µM, first compound 1 µM
[23] = second compound 3.16 µM, first compound 3.16 µM
[24] = second compound 3.16 µM, first compound 10 µM
[25] = second compound 10 µM, first compound 0.0316 µM
[26] = second compound 10 µM, first compound 0.1 µM
[27] = second compound 10 µM, first compound 0.316 µM
[28] = second compound 10 µM, first compound 1 µM
[29] = second compound 10 µM, first compound 3.16 µM
[30] = second compound 10 µM, first compound 10 µM
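Also: spheroids exposed to compounds for seven days before readout.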
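For viability, T/C in this document: T/C percent relative to DMSO vehicle wells set as 100% viability.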

## C=CC(=O)N1CCN(c2nc(=O)n(-c3c(C)ccnc3C(C)C)c3nc(-c4c(O)cccc4F)c(F)cc23)C(C)C1 (stereo not given) + CC(C)NCC(C(=O)N1CCN(c2ncnc3c2C(C)CC3O)CC1)c1ccc(Cl)cc1
Second compound 0.1 µM
  IC50: > 10000 nM
Second compound 0.316 µM
  IC50: > 10000 nM
Second compound 1 µM
  IC50: 3340 nM
Second compound 3.16 µM
  IC50: < 31.6 nM
Second compound 10 µM
  IC50: < 31.6 nM
[1]
  viability, T/C: 87.5%
[2]
  viability, T/C: 86.1%
[3]
  viability, T/C: 92.7%
[4]
  viability, T/C: 91.1%
[5]
  viability, T/C: 90.6%
[6]
  viability, T/C: 54.3%
[7]
  viability, T/C: 64.5%
[8]
  viability, T/C: 67.1%
[9]
  viability, T/C: 62.6%
[10]
  viability, T/C: 71.6%
[11]
  viability, T/C: 73.5%
[12]
  viability, T/C: 46.4%
[13]
  viability, T/C: 54.9%
[14]
  viability, T/C: 56.5%
[15]
  viability, T/C: 58%
[16]
  viability, T/C: 54.4%
[17]
  viability, T/C: 50.8%
[18]
  viability, T/C: 34.5%
[19]
  viability, T/C: 44.5%
[20]
  viability, T/C: 52.9%
[21]
  viability, T/C: 48.5%
[22]
  viability, T/C: 47%
[23]
  viability, T/C: 45.6%
[24]
  viability, T/C: 30.7%
[25]
  viability, T/C: 40%
[26]
  viability, T/C: 39%
[27]
  viability, T/C: 40.9%
[28]
  viability, T/C: 42.7%
[29]
  viability, T/C: 38.1%
[30]
  viability, T/C: 22.5%

## Cn1ncc(Cl)c1-c1cc(C(=O)NC(CN)Cc2cccc(F)c2)sc1Cl (stereo not given) + CC(C)NCC(C(=O)N1CCN(c2ncnc3c2C(C)CC3O)CC1)c1ccc(Cl)cc1
Second compound 0.1 µM
  IC50: 714 nM
Second compound 0.316 µM
  IC50: 925 nM
Second compound 1 µM
  IC50: 522 nM
Second compound 3.16 µM
  IC50: < 31.6 nM
Second compound 10 µM
  IC50: < 31.6 nM
[1]
  viability, T/C: 75.9%
[2]
  viability, T/C: 75.1%
[3]
  viability, T/C: 53.7%
[4]
  viability, T/C: 53.4%
[5]
  viability, T/C: 15.4%
[6]
  viability, T/C: 0.11%
[7]
  viability, T/C: 60%
[8]
  viability, T/C: 57.1%
[9]
  viability, T/C: 53.8%
[10]
  viability, T/C: 50.2%
[11]
  viability, T/C: 18.7%
[12]
  viability, T/C: 0.1%
[13]
  viability, T/C: 54.7%
[14]
  viability, T/C: 50.5%
[15]
  viability, T/C: 49.4%
[16]
  viability, T/C: 48.1%
[17]
  viability, T/C: 11%
[18]
  viability, T/C: 0.1%
[19]
  viability, T/C: 41.2%
[20]
  viability, T/C: 44.9%
[21]
  viability, T/C: 43.7%
[22]
  viability, T/C: 40.5%
[23]
  viability, T/C: 18.9%
[24]
  viability, T/C: 0.1%
[25]
  viability, T/C: 41.8%
[26]
  viability, T/C: 42.1%
[27]
  viability, T/C: 35%
[28]
  viability, T/C: 39.3%
[29]
  viability, T/C: 9.68%
[30]
  viability, T/C: 0.15%

## Cn1ncnc1[C@H]1c2n[nH]c(=O)c3cc(F)cc(c23)N[C@@H]1c1ccc(F)cc1 + CC(C)NCC(C(=O)N1CCN(c2ncnc3c2C(C)CC3O)CC1)c1ccc(Cl)cc1
Second compound 0.1 µM
  IC50: > 100 nM
Second compound 0.316 µM
  IC50: > 100 nM
Second compound 1 µM
  IC50: > 100 nM
Second compound 3.16 µM
  IC50: < 0.316 nM
Second compound 10 µM
  IC50: < 0.316 nM
Second compound 0.1 µM, first compound 0.000316 µM
  viability, T/C: 91.9%
Second compound 0.1 µM, first compound 0.001 µM
  viability, T/C: 79.1%
Second compound 0.1 µM, first compound 0.00316 µM
  viability, T/C: 79.2%
Second compound 0.1 µM, first compound 0.01 µM
  viability, T/C: 91.9%
[1]
  viability, T/C: 68.6%
[2]
  viability, T/C: 73.4%
Second compound 0.316 µM, first compound 0.000316 µM
  viability, T/C: 73.5%
Second compound 0.316 µM, first compound 0.001 µM
  viability, T/C: 67.9%
Second compound 0.316 µM, first compound 0.00316 µM
  viability, T/C: 59.8%
Second compound 0.316 µM, first compound 0.01 µM
  viability, T/C: 65.7%
[7]
  viability, T/C: 63.6%
[8]
  viability, T/C: 58.3%
Second compound 1 µM, first compound 0.000316 µM
  viability, T/C: 60.1%
Second compound 1 µM, first compound 0.001 µM
  viability, T/C: 51.4%
Second compound 1 µM, first compound 0.00316 µM
  viability, T/C: 51%
Second compound 1 µM, first compound 0.01 µM
  viability, T/C: 53.5%
[13]
  viability, T/C: 60.3%
[14]
  viability, T/C: 51.9%
Second compound 3.16 µM, first compound 0.000316 µM
  viability, T/C: 47%
Second compound 3.16 µM, first compound 0.001 µM
  viability, T/C: 40.3%
Second compound 3.16 µM, first compound 0.00316 µM
  viability, T/C: 45.9%
Second compound 3.16 µM, first compound 0.01 µM
  viability, T/C: 42.9%
[19]
  viability, T/C: 49.5%
[20]
  viability, T/C: 46.1%
Second compound 10 µM, first compound 0.000316 µM
  viability, T/C: 42.8%
Second compound 10 µM, first compound 0.001 µM
  viability, T/C: 44.4%
Second compound 10 µM, first compound 0.00316 µM
  viability, T/C: 37.7%
Second compound 10 µM, first compound 0.01 µM
  viability, T/C: 45.9%
[25]
  viability, T/C: 38%
[26]
  viability, T/C: 37.2%

## Cn1cnc2c(F)c(Nc3ccc(Br)cc3Cl)c(C(=O)NOCCO)cc21 + CCN1CCN(Cc2ccc(Nc3ncc(F)c(-c4cc(F)c5nc(C)n(C(C)C)c5c4)n3)nc2)CC1
Second compound 0.01 µM
  IC50: 270 nM
Second compound 0.0316 µM
  IC50: 132 nM
Second compound 0.1 µM
  IC50: 54.1 nM
Second compound 0.316 µM
  IC50: 288 nM
Second compound 1 µM
  IC50: 41.6 nM
Second compound 0.01 µM, first compound 0.00949 µM
  viability, T/C: 83%
Second compound 0.01 µM, first compound 0.03 µM
  viability, T/C: 74.6%
Second compound 0.01 µM, first compound 0.0949 µM
  viability, T/C: 55.4%
Second compound 0.01 µM, first compound 0.3 µM
  viability, T/C: 52.6%
Second compound 0.01 µM, first compound 0.949 µM
  viability, T/C: 46.7%
Second compound 0.01 µM, first compound 3 µM
  viability, T/C: 45%
Second compound 0.0316 µM, first compound 0.00949 µM
  viability, T/C: 80.4%
Second compound 0.0316 µM, first compound 0.03 µM
  viability, T/C: 61.5%
Second compound 0.0316 µM, first compound 0.0949 µM
  viability, T/C: 51.9%
Second compound 0.0316 µM, first compound 0.3 µM
  viability, T/C: 46.2%
Second compound 0.0316 µM, first compound 0.949 µM
  viability, T/C: 46.1%
Second compound 0.0316 µM, first compound 3 µM
  viability, T/C: 39.8%
Second compound 0.1 µM, first compound 0.00949 µM
  viability, T/C: 68.8%
Second compound 0.1 µM, first compound 0.03 µM
  viability, T/C: 54.5%
Second compound 0.1 µM, first compound 0.0949 µM
  viability, T/C: 43.9%
Second compound 0.1 µM, first compound 0.3 µM
  viability, T/C: 44.1%
Second compound 0.1 µM, first compound 0.949 µM
  viability, T/C: 45.2%
Second compound 0.1 µM, first compound 3 µM
  viability, T/C: 37%
Second compound 0.316 µM, first compound 0.00949 µM
  viability, T/C: 72.7%
Second compound 0.316 µM, first compound 0.03 µM
  viability, T/C: 64.9%
Second compound 0.316 µM, first compound 0.0949 µM
  viability, T/C: 48%
Second compound 0.316 µM, first compound 0.3 µM
  viability, T/C: 54.4%
Second compound 0.316 µM, first compound 0.949 µM
  viability, T/C: 48.8%
Second compound 0.316 µM, first compound 3 µM
  viability, T/C: 41.7%
Second compound 1 µM, first compound 0.00949 µM
  viability, T/C: 70.1%
Second compound 1 µM, first compound 0.03 µM
  viability, T/C: 53.6%
Second compound 1 µM, first compound 0.0949 µM
  viability, T/C: 38.4%
Second compound 1 µM, first compound 0.3 µM
  viability, T/C: 44%
Second compound 1 µM, first compound 0.949 µM
  viability, T/C: 39.2%
Second compound 1 µM, first compound 3 µM
  viability, T/C: 41.5%
